{
  "source": "patent US20090062240A1",
  "about": "“Pharmaceutical combinations containing an inhibitor of platelet aggregation and a fibrate” (Fournier Laboratories Ireland Limited, priority 2004, published 2009)",
  "system": "rat platelet aggregation",
  "assay": "Ex-vivo rat platelet aggregation induced by arachidonic acid after oral treatment (Born's method, PRP)",
  "format": "in vivo",
  "conditions": "for % aggregation upon addition of 1 mM arachidonic acid: rat PRP, mean, n = 8; for reduction in platelet aggregation (in words): 1 mM arachidonic acid",
  "method": "A study was carried out to assess the effect of a combination of a fibrate (fenofibrate) and aspirin on platelet aggregation in this study, fenofibrate and aspirin were co-administered to rats by the oral route (p.o.) and the effects on arachidonic acid-induced platelet aggregation were observed.\n40 male OFA-SD (IOPS Caw) rats (C.River, France), weighing in the target range of 300 to 350 g, were included in the study.\nThey were housed in a temperature (19.5-24.5° C.) and relative humidity (45-65%) controlled room with a 12-h light/dark cycle, with ad libitum access to filtered tap-water and standard pelleted laboratory chow (SAFE, France) throughout the study. Upon receipt at animal facilities, they were housed 4 per cage and at least a 5-day acclimatization period was observed. Animals were individually identified on the tail.\nThe animals of this study were split into 5 groups of 8 animals as follows:\nGroup 2: Fenofibrate, 300 mg/kg, p.o.×10 days\nGroup 3 Aspirin 3 mg/kg, p.o.×1 day\nGroup 4: Fenofibrate, 300 mg/kg, p.o×10 days+Aspirin 3 mg/kg, p.o.×1 day\nGroup 5: Aspirin 30 mg/kg, p.o.×1 day\nAt the end of the acclimatization period, rats were identified on the tail and divided into 10 boxes of 4 rats.\nThey were then weighed and treated orally once a day during ten consecutive days with the vehicle (1% methylcellulose aqueous solution) or the test substance fenofibrate. On the last day of treatment, the animals were also treated with aspirin as described above. Aspirin (acetyl saliclylic acid) was obtained from Sigma, France and fenofibrate was supplied by Laboratoires Fournier, France. Test substances and the vehicle were administered by p.o. route once a day, in a volume of 5 ml/kg adjusted to the animal weight measured every day before administration.\nOn the last day of treatment (day 10), 2 hours after the oral gavage, rats were anaesthetised with isoflurane, and blood samples were collected from the abdominal aorta into plastic tubes containing heparin.\nPRP (platelet-rich plasma) was then produced by centrifuging the blood obtained at 250 g for 10 minutes using a GPKR centrifuge (Beckman, France). Then samples were then centrifuged again at 2000 g for 10 minutes to obtain the platelet-poor plasma (PPP).\nAfter a platelet count, each PRP sample was adjusted to 6×10^8 platelets/mL with the needed volume of homologous PPP (using T540 Cell Counter, Beckman, France).\nPlatelet aggregation was recorded using Born's method (Born, Nature, 1962, 194, 927-929) with 0.3 mL of the platelet suspension in disposable glass cuvettes placed in the turbidometric aggregometer (Chrono-Dual 440 aggregometer, Beckman Coulter, France) and stirred at 1100 rev.min^−1 at 37° C.\nPlatelet aggregation was induced by Arachidonic acid [AA] for each PRP sample tested.\nResults were reported as the aggregation amplitude measured in mm and expressed as percentage of maximal aggregation.\nStatistical analysis consisted in a one-way analysis of variance followed by multiple comparisons versus the vehicle group (Dunnett's test) on % aggregation values. Where the equal variance test failed, a Kruskall-Wallis one-way analysis of variance on ranks was proposed. A difference is considered significant for p<0.05.",
  "data": [
    {"smiles": "CC(C)OC(=O)C(C)(C)Oc1ccc(C(=O)c2ccc(Cl)cc2)cc1", "note": "[Fenofibrate, 2-[4-(4-chlorobenzoyl)phenoxy]-2-methyl-propanoic acid, 1-methylethyl ester]", "values": [
      {"measurement": "% aggregation upon addition of 1 mM arachidonic acid", "setting": "Fenofibrate 300 mg/kg p.o. x 10 days, blood 2 h after last gavage", "value": 94.2, "unit": "%"},
      {"measurement": "reduction in platelet aggregation (in words)", "setting": "fenofibrate alone (300 mg/kg)", "value": "no reduction in platelet aggregation"}
    ]},
    {"smiles": "CC(=O)Oc1ccccc1C(=O)O", "note": "[Aspirin, Acetylsalicylic acid]", "values": [
      {"measurement": "% aggregation upon addition of 1 mM arachidonic acid", "setting": "Aspirin 3 mg/kg p.o. x 1 day, blood 2 h after gavage", "value": 85.0, "unit": "%"},
      {"measurement": "% aggregation upon addition of 1 mM arachidonic acid", "setting": "Aspirin 30 mg/kg p.o. x 1 day, p < 0.05 vs Control", "value": 0.4, "unit": "%"},
      {"measurement": "reduction in platelet aggregation (in words)", "setting": "aspirin alone at 3 mg/kg", "value": "no reduction in platelet aggregation"}
    ]}
  ]
}
